Test results: patent US20250000850A1, “COMPOSITION USED TO PREVENT OR SUPPRESS REFEEDING SYNDROME” (OTSUKA PHARMACEUTICAL FACTORY, INC., priority 2021, published 2025)

Test: Effect of rapamycin on blood phosphorus concentration after refeeding to protein-undernourished rats
Type: in vivo, male Wistar rats
Details: rapamycin 2 mg/mL at 0.75 mL/kg i.p., mean ± SD, n=8
Method: Using male Wistar rats (7 weeks old at time of purchase; Charles River Laboratories Japan, Inc.), a group of rats fed with a purified diet having a protein content of 2.5% (referred to below as “low-protein diet”) for at least 3 weeks, and a group of rats fed with a purified diet having a protein content of 20% (referred to below as “normal diet”) for at least 3 weeks were prepared. […] Each animal had access to tap water ad libitum for at least 3 weeks. After fasting with ad libitum access to water for 24 hours, jugular vein catheterization was performed under isoflurane anesthesia, and the other end of the catheter was passed under the skin, exited from the back, and connected to a syringe containing physiological saline via a harness. The rats were then kept in individual metabolic cages with the catheter being open. Post-operatively, an antibiotic (ampicillin) was injected intramuscularly at a dose of 5 mg/100 μL/rat. After recovery from anesthesia, blood (400 μL) was collected from the catheter placed in the jugular vein, then injected into a tube containing sodium heparin, and stored on ice. The blood was promptly fractionated to obtain plasma, and the inorganic phosphorus concentration in the plasma was promptly measured using a Fuji Dry Chem Slide (produced by Fuji Film Corporation). The rats were grouped into predetermined groups using the obtained measurements and body weight data as indices.
The physiological saline was replaced with a nutrient infusion preparation or an electrolyte preparation at 5 p.m. to start administration to the animals. The nutrient infusion preparation used was Elneopa-NF No. 2 infusion (produced by Otsuka Pharmaceutical Factory Co., Ltd.). The electrolyte formulation used was an electrolyte infusion preparation composed of the electrolyte contained in Elneopa-NF No. 2 infusion. […] Immediately before administering these preparations, either a solvent (dimethyl sulfoxide, produced by Fujifilm Wako Pure Chemicals Corporation; referred to below as “DMSO”) or a solution of 2 mg/mL of rapamycin (produced by Tokyo Chemical Industry Co., Ltd.) whose side effect of inhibiting muscle synthesis was known was intraperitoneally administered by bolus at a dose of 0.75 mL/kg in each case. […]
Starting at 9 a.m. on the day after the start of administration, blood was collected from the abdominal aorta by using a syringe under isoflurane anesthesia. […] The concentration of inorganic phosphorus in the plasma was determined by an enzymatic method (Determiner L, produced by Hitachi Chemical Diagnostics Systems Co., Ltd.).

CO[C@H]1C[C@@H]2CC[C@@H](C)[C@@](O)(O2)C(=O)C(=O)N2CCCC[C@H]2C(=O)O[C@H]([C@H](C)C[C@@H]2CC[C@@H](O)[C@H](OC)C2)CC(=O)[C@H](C)/C=C(\C)[C@@H](O)[C@@H](OC)C(=O)[C@H](C)C[C@H](C)/C=C/C=C/C=C/1C [rapamycin]
Plasma phosphorus concentration after administration (LPD (electrolyte + rapamycin): low-protein diet rats, electrolyte infusion 16 h): 6.1 ± 0.6 mg/dL | Plasma phosphorus concentration after administration (LPD (refeeding + rapamycin): low-protein diet rats, nutrient infusion 16 h): 4.2 ± 0.4 mg/dL | Plasma phosphorus concentration after administration (NPD (electrolyte + rapamycin): normal diet rats, electrolyte infusion 16 h): 6.4 ± 0.4 mg/dL | Plasma phosphorus concentration after administration (NPD (refeeding + rapamycin): normal diet rats, nutrient infusion 16 h): 4.7 ± 0.4 mg/dL
